Holding throughout (experiment): Greenhouse post-emergence weed control, percent injury vs untreated control
What all share (settings): 504 h

The test system of test [1] is Echinochloa crus-galli (ECHCG). In kind it is in vivo. The procedure: (§1) Glufosinate was used as a commercial SL formulation containing 280 g ai/l of glufosinate (Liberty 280 SL, BASF). While the PPO herbicide Spartan containing 480 g ai/l sulfentrazone was used (Spartan 480 SC, FMC) formulation. • The evaluation for plant injury or damage caused by the chemical compositions was carried out using a scale from 0-100% when compared with the untreated control plants. Here, 0 means no damage and 100 means complete destruction of the plants.
(§2) 22., E=X+Y−(X*Y/100), where • X=effect in percent using herbicide A at an application rate of a; • Y=effect in percent using herbicide B at an application rate of b; • E=expected effect (in %) of A+B at application rates a+b.
(§3) The value E corresponds to the effect (plant damage or injury) which is to be expected if the activity of the individual compounds is just additive. If the observed effect is higher than the value E calculated according to Colby, a synergistic effect is present.
(§4) Seedlings of Palmer amaranth (Amaranthus palmeri; AMAPA), common waterhemp (Amaranthuis tameriscinus; AMATA), and barnyardgrass (Echinochloa crus-galli; ECHCG) were treated with postemergence applications of either glufosinate at 246 g ai/ha, sulfentrazone at 4.2 or 42 g ai/ha, or the combination of glufosinate (246 g ai/ha) and sulfentrazone (4.2, 42 g ai/ha), respectively, when they were 5-10 cm in height. All glufosinate treatments contained 1% (w/v) ammonium sulfate and solo sulfentrazone treatments contained 1% (v/v) MSO surfactant. Plants were placed in a completely randomized design with four replications per treatment. Percent injury data was collected 21 days after treatment (DAT).

In test [2] the test system is Amaranthus tamariscinus (AMATA). In kind it is in vivo. The protocol:
as §1, §2, §3, §4

In test [3] the test system is Amaranthus Palmerii (AMAPA). In kind it is in vivo, Amaranthus palmeri. The protocol: as §1, §2, §3
Seedlings of Palmer amaranth (Amaranthus palmeri; AMAPA), common waterhemp (Amaranthuis tameriscinus; AMATA), and barnyardgrass (Echinochloa crus-galli; ECHCG) were treated with postemergence applications of either glufosinate at 246 g ai/ha, sulfentrazone at 4.2 or 42 g ai/ha, or the combination of glufosinate (246 g ai/ha) and sulfentrazone (4.2, 42 g ai/ha), respectively, when they were 5-10 cm in height. […]

Setting [4] is: read-out: Solo Glufosinate (246 g ai/ha) % activity.

For the molecule `CP(=O)(O)CCC(N)C(=O)O` (racemic) [Glufosinate, (2RS)-2-amino-4-[hydroxy(methyl)phosphinoyl]butyric acid], the figures for the inhibition at 246 g/ha in test [1] (setting [4]), in test [2] (setting [4]) and in test [3] (setting [4]) were 57%, 79% and 79%, respectively.
As for `Cc1nn(-c2cc(NS(C)(=O)=O)c(Cl)cc2Cl)c(=O)n1C(F)F` [Sulfentrazone, sulfentrazone], the inhibition at 42 g/ha in test [1] (ECHCG, 42 g ai/ha, 1% (v/v) MSO, 21 DAT, read-out: Solo Sulfentrazone (42 g ai/ha) % activity) stood at 23%; in test [2] (AMATA, 42 g ai/ha, 1% (v/v) MSO, 21 DAT, read-out: Solo Sulfentrazone (42 g ai/ha) % activity), 33%. In test [3] (AMAPA, 4.2 g ai/ha, 1% (v/v) MSO, 21 DAT, 0 = no damage, 100 = complete destruction, read-out: Solo Sulfentrazone (4.2 g ai/ha) % activity), the inhibition at 4.2 g/ha came out at 20%.
